Data reported in US6423853B1, “Continuous ozonolysis of cycloalkenes into ozonides” (E. I. du Pont de Nemours & Comp., priority 2001, dated 2002).

Experiments:
[1] = disclosed in Maggiolo patent; cited from earlier work
[2] = solubility in propionic acid; details: using cyclododecene in the present process
Protocol: A reactor system consisting of a jacketed 1 inch, 10 tray glass Oldershaw column, 250 cc bottom receiver, feed pump, and recycle pump were assembled. The initial feed material consisted of 102 g. of propionic acid solvent and 18 g. of cyclododecene. 120 g. of the initial feed material were charged into the reactor system. The temperature of the jacket on the Oldershaw column was adjusted to 20° C. and a recycle flow of 50 cc/min. was established using the recycle pump. An ClearWater Tech modelM-1500 ozone generator was attached to the system. A carrier gas consisting of 20% oxygen in carbon dioxide was fed to the reactor at 2000 cc/min. The gas exit the ozone generator was measured to contain 0.80% ozone. […] At that point, the additional 18 g. of pure CDDM solution was fed to the top of the column at a rate of 00.15 cc/min. The balance between the ozone and the cyclododecene fed allowed an excess of ozone in the reactor off gas at all times.

Compound	solubility in isobutyric acid [1] [%]	ozonide solubility in propionic acid [2]
C1=CCCCCCC1 [cyclooctene]	20	–
C1CCCCCC2OOC(CCCC1)O2 [ozonide, cyclododecene ozonide]	–	about 27.5%
